Data taken from patent US20210177722A1, “Phytic Acid Ester Derivative” (NATIONAL UNIVERSITY CORPORATION KUMAMOTO UNIVERSITY, priority 2018, published 2021).

How the values were obtained:
HeLa cell = assay: Quantitative determination of IP6 in cell (LC/MS of IP6 methyl ester); type: cell-based; details: HeLa cells, 10 μM, 30 minutes
Protocol: In this example, incorporation of Pro-IP6 into a HeLa cell was quantitatively determined.
HeLa cells (5×10^5 cells/well, culture fluid: 1 mL) were seeded in a 3.5 cm dish to be cultured for 24 hours. Thereafter, DMSO (1%, Fujifilm Wako Pure Chemical Corporation), an aqueous solution (1%) of IP6 (final concentration: 10 μM, Sigma Aldrich), or a DMSO solution (1%) of Pro-IP6 (final concentration: 10 μM) synthesized in Example 1 was added thereto, and the resultant was cultured for another 30 minutes. HeLa cells were cultured with neither IP6 nor Pro-IP6 added, followed by adding the same amount of DMSO thereto, and the resultant was used as a negative control.
Thereafter, the resultant was washed with 1× PBS (−) once, and the resultant cells were scraped with a cell scraper, transferred to a 1.5 mL tube, and washed with 1× PBS (−) three times. To the thus obtained precipitate, 350 μl of MeOH (Fujifilm Wako Pure Chemical Corporation) and 1% NP-40 (Nacalai Tesque, Inc.) were added, followed by sonication (10 minutes). After equilibrating a column (Oasis WAX 1cc, Waters) with MeOH (1 mL) and H2O (1 mL), a disrupted cell extract was added thereto. Thereafter, the column was washed with 50% MeOH (1 mL), and eluted with 50% MeOH (200 μL×2) containing 2 mol/L of HCl (Fujifilm Wako Pure Chemical Corporation). The thus obtained eluate was concentrated, and dissolved in MeOH (50 μL), and trimethylsilyldiazomethane (200 μl, Tokyo Chemical Industry Co., Ltd.) was added thereto, followed by stirring at 50° C. for 1 hour under argon atmosphere. The reaction was stopped by adding H2O (100 μL). Through a reaction of trimethylsilyidiazomethane with IP6, IP6 methyl ester is obtained.
The thus obtained sample (IP6 methyl ester) was measured by LC/MS [column: MastroC18 2.1 mm×100 mm, […] (Shimadzu GLC Ltd.), mobile phase: 0.1% formic acid solution (Fujifilm Wako Pure Chemical Corporation), acetonitrile (Fujifilm Wako Pure Chemical Corporation)] [LC:LC-20AD (Shimadzu), MS: amaZon speed (BRUKER)].

[1] = test system: MT-2 cell (HTLV transformed human T cell leukemia cell); assay: MTT assay, MT-2 cell; type: cell-based; details: 1 μM or 10 μM, 8 hours or 24 hours
Protocol: (§1) In this example, the cytotoxic effect of Pro-IP6 on four types of blood cancer cell lines and a cell derived from a healthy person was examined by MTT assay. […] It is possible to check viability of cultured cells by MTT assay. Cancer cell lines (1.74×10^4 cells/well, culture fluid: 200 μL) • MT-2 cell (HTLV transformed human T cell leukemia cell) • […] cell (human T-lymphoblastoid cell) • Jurkat cell (human T-lymphocyte cell) • K562 cell (chronic myelogenous leukemia cell) Each of the above-described types of cells was seeded in a 96-well plate, and was cultured for 8 hours for each of the various cancer cell lines and for 16 hours for PMBC. Thereafter, DMSO (1%, Fujifilm Wako Pure Chemical Corporation), an aqueous solution (1%) of IP6 (final concentration: 1 μM or 10 μM, Sigma Aldrich), or a DMSO solution (1%) of Pro-IP6 (final concentration: 1 μM or 10 μM) was added thereto, followed by culturing for 8 hours or 24 hours. An MTT reagent (Dojindo Laboratories, 1.1 mg/mL) was added in an amount of 50 μL per well, and the resultant was cultured for another 4 hours. The thus precipitated crystal was collected, a supernatant was removed, and 100 μL of DMSO was added thereto to completely dissolve. The resultant solution was measured for an absorbance (550 nm).

[2] = test system: M8166 cell (human T-lymphoblastoid cell); assay: MTT assay, M8166 cell; type: cell-based; details: M8166 cell, 1 μM or 10 μM, 8 hours or 24 hours
Protocol: as §1

[3] = test system: Jurkat cell (human T-lymphocyte cell); assay: MTT assay, Jurkat cell; type: cell-based; details: Jurkat cell, 1 μM or 10 μM, 8 hours or 24 hours
Protocol: as §1

[4] = test system: K562 cell (chronic myelogenous leukemia cell); assay: MTT assay, K562 cell; type: cell-based; details: 1 μM or 10 μM, 8 hours or 24 hours
Protocol: as §1

[5] = test system: S1T cell (ATL cell line) tumor; assay: Effect on HTLV-1 infected cell-transplanted mouse (ATL model); type: in vivo; details: day 28 after transplantation, 7.1 mg/kg per day intraperitoneally for 28 days, NSG mice with S1T cells
Text: In this example, the in vivo effect of Pro-IP6 on an HTLV-1 infected cell-transplanted mouse was checked. HTLV-1 (human T cell leukemia virus 1) mainly infects CD4-positive T lymphocyte, and when the infected cell cancerates, refractory malignant tumor, adult T-cell leukemia (ATL) is caused. In this example, S1T cell, that is, one of ATL cell lines, was used.
5-Week-old female NSG mice (NOD. Cg-Prkdc scid I12rg tm1Wjl/SzJ, Charles River Laboratories Japan, Inc.) were used. Five mice each in each of two cages, namely, ten mice in total, were raised with sterilized bedding (Pepar Clean: Japan SLC, Inc.) placed in a sterilized cage (Clea Japan, Inc.). […]
The control group was dosed with DMSO, and the IP6 administration group and the pro-IP6 administration group were intraperitoneally dosed respectively with IP6 in an amount of 7.1 mg/kg and pro-IP6 in an amount of 20 mg/kg. The mice were dosed continuously for 28 days after the day of the cell transplantation, and the weight and the tumor volume of each mouse were measured every day. The tumor volume was defined as (shorter diameter in mm)^2×(longer diameter in mm)×0.5, and the shorter diameter and the longer diameter were measured with a caliper. […] Subsequently, the tumor was totally removed, and the tumor volume and the tumor weight of each tumor were measured.

O=P(O)(O)O[C@H]1[C@H](OP(=O)(O)O)[C@@H](OP(=O)(O)O)[C@H](OP(=O)(O)O)[C@@H](OP(=O)(O)O)[C@H]1OP(=O)(O)O [IP6, myo-inostiol-1,2,3,4,5,6-hexaphosphate, reference compound]
incorporation into HeLa cell (IP6 methyl ester by LC/MS vs negative control) (HeLa cell): substantially the same as that of the negative control
cytotoxic effect [1]: minimally exhibited the effect
cytotoxic effect [2]: minimally exhibited the effect
cytotoxic effect [3]: minimally exhibited the effect
cytotoxic effect [4]: minimally exhibited the effect
tumor volume compared with that of the control group [5]: not significantly different
